Laboratory results published in PubChem BioAssay AID1963851 (Molecular Pharmacology Branch, DTP, NCI, 2024).

System: 188146-221-R-J1-PDC complex spheroid viability
Experiment: Anticancer human tumor 188146-221-R-J1-PDC patient-derived colon adenocarcinoma cell line growth inhibition [POLQ]
Settings: for IC50: curve of first compound; for viability, T/C: stronger effect = lower value
Outline: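 PDC + HUVEC + MSC complex spheroids; POLQ inhibitors ± partner drugs; top conc. at/near clinical Cmax, else 10 microM (SN-38 1 microM), half-log dilutions; 37 degrees C, 5% CO2.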

[1] = second compound 0.0316 µM, first compound 0.0316 µM
[2] = second compound 0.0316 µM, first compound 0.1 µM
[3] = second compound 0.0316 µM, first compound 0.316 µM
[4] = second compound 0.0316 µM, first compound 1 µM
[5] = second compound 0.0316 µM, first compound 3.16 µM
[6] = second compound 0.0316 µM, first compound 10 µM
[7] = second compound 0.1 µM, first compound 0.0316 µM
[8] = second compound 0.1 µM, first compound 0.1 µM
[9] = second compound 0.1 µM, first compound 0.316 µM
[10] = second compound 0.1 µM, first compound 1 µM
[11] = second compound 0.1 µM, first compound 3.16 µM
[12] = second compound 0.1 µM, first compound 10 µM
[13] = second compound 0.316 µM, first compound 0.0316 µM
[14] = second compound 0.316 µM, first compound 0.1 µM
[15] = second compound 0.316 µM, first compound 0.316 µM
[16] = second compound 0.316 µM, first compound 1 µM
[17] = second compound 0.316 µM, first compound 3.16 µM
[18] = second compound 0.316 µM, first compound 10 µM
[19] = second compound 1 µM, first compound 0.0316 µM
[20] = second compound 1 µM, first compound 0.1 µM
[21] = second compound 1 µM, first compound 0.316 µM
[22] = second compound 1 µM, first compound 1 µM
[23] = second compound 1 µM, first compound 3.16 µM
[24] = second compound 1 µM, first compound 10 µM
[25] = second compound 3.16 µM, first compound 0.0316 µM
[26] = second compound 3.16 µM, first compound 0.1 µM
[27] = second compound 3.16 µM, first compound 0.316 µM
[28] = second compound 3.16 µM, first compound 1 µM
[29] = second compound 3.16 µM, first compound 3.16 µM
[30] = second compound 3.16 µM, first compound 10 µM
[31] = second compound 10 µM, first compound 0.0316 µM
[32] = second compound 10 µM, first compound 0.1 µM
[33] = second compound 10 µM, first compound 0.316 µM
[34] = second compound 10 µM, first compound 1 µM
[35] = second compound 10 µM, first compound 3.16 µM
[36] = second compound 10 µM, first compound 10 µM
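Note: spheroids exposed to compounds for seven days.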
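Throughout, for viability, T/C: 100% = DMSO vehicle control viability.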

CC(C)n1c(=O)n(C)c2cnc3cc(F)c(-c4ccc(OCCCN5CCCCC5)nc4)cc3c21 + Nc1ccc(C#CCN(C(=O)Cc2ncc(C(F)(F)F)cc2C(F)(F)F)c2ccc(F)cc2)nn1
IC50 (second compound 0.0316 µM): > 10 µM | IC50 (second compound 0.1 µM): > 10 µM | IC50 (second compound 0.316 µM): > 10 µM | IC50 (second compound 1 µM): > 10 µM | IC50 (second compound 3.16 µM): > 10 µM | IC50 (second compound 10 µM): > 10 µM | viability, T/C [1]: 87.3% | viability, T/C [2]: 106% | viability, T/C [3]: 95.4% | viability, T/C [4]: 97.9% | viability, T/C [5]: 83.6% | viability, T/C [6]: 80.7% | viability, T/C [7]: 101% | viability, T/C [8]: 107% | viability, T/C [9]: 94.9% | viability, T/C [10]: 92.2% | viability, T/C [11]: 92.6% | viability, T/C [12]: 83.7% | viability, T/C [13]: 94.8% | viability, T/C [14]: 94.7% | viability, T/C [15]: 89.4% | viability, T/C [16]: 96.8% | viability, T/C [17]: 103% | viability, T/C [18]: 80.9% | viability, T/C [19]: 104% | viability, T/C [20]: 101% | viability, T/C [21]: 88% | viability, T/C [22]: 88.9% | viability, T/C [23]: 93.7% | viability, T/C [24]: 86.9% | viability, T/C [25]: 99% | viability, T/C [26]: 98.3% | viability, T/C [27]: 99.5% | viability, T/C [28]: 84.2% | viability, T/C [29]: 95.3% | viability, T/C [30]: 87.8% | viability, T/C [31]: 105% | viability, T/C [32]: 95.5% | viability, T/C [33]: 98.4% | viability, T/C [34]: 96.6% | viability, T/C [35]: 97.9% | viability, T/C [36]: 84.1%

COc1ccc([C@@H](O)c2cc(-c3ncnc4cc(N5CCOCC5)ccc34)c(F)cc2Cl)nn1 + Nc1ccc(C#CCN(C(=O)Cc2ncc(C(F)(F)F)cc2C(F)(F)F)c2ccc(F)cc2)nn1
IC50 (second compound 0.0316 µM): 6.82 µM | IC50 (second compound 0.1 µM): 6.9 µM | IC50 (second compound 0.316 µM): > 10 µM | IC50 (second compound 1 µM): 8.15 µM | IC50 (second compound 3.16 µM): 7.39 µM | IC50 (second compound 10 µM): 6.86 µM | viability, T/C [1]: 103% | viability, T/C [2]: 118% | viability, T/C [3]: 96.6% | viability, T/C [4]: 87.6% | viability, T/C [5]: 65.1% | viability, T/C [6]: 42.5% | viability, T/C [7]: 109% | viability, T/C [8]: 91.3% | viability, T/C [9]: 91.1% | viability, T/C [10]: 83.9% | viability, T/C [11]: 74.1% | viability, T/C [12]: 39% | viability, T/C [13]: 122% | viability, T/C [14]: 95.3% | viability, T/C [15]: 95.5% | viability, T/C [16]: 83.6% | viability, T/C [17]: 82.5% | viability, T/C [18]: 44.5% | viability, T/C [19]: 103% | viability, T/C [20]: 96.8% | viability, T/C [21]: 91.9% | viability, T/C [22]: 87.2% | viability, T/C [23]: 69.8% | viability, T/C [24]: 45.3% | viability, T/C [25]: 104% | viability, T/C [26]: 102% | viability, T/C [27]: 110% | viability, T/C [28]: 97.6% | viability, T/C [29]: 81.7% | viability, T/C [30]: 38.8% | viability, T/C [31]: 102% | viability, T/C [32]: 104% | viability, T/C [33]: 103% | viability, T/C [34]: 91.6% | viability, T/C [35]: 63.9% | viability, T/C [36]: 43.3%

CC1COCCN1c1cc(-c2ccnn2C)c2ccnc(-c3ccn[nH]3)c2n1 (stereo unspecified) + Cc1cccc(N(C)C(=O)C2C(O)CCN2c2nc(C)cc(C(F)(F)F)c2C#N)c1
IC50 (second compound 0.0316 µM): 0.203 µM | IC50 (second compound 0.1 µM): 0.228 µM | IC50 (second compound 0.316 µM): 0.248 µM | IC50 (second compound 1 µM): 0.336 µM | IC50 (second compound 3.16 µM): 0.232 µM | IC50 (second compound 10 µM): 0.165 µM | viability, T/C [1]: 86.4% | viability, T/C [2]: 63.6% | viability, T/C [3]: 43.3% | viability, T/C [4]: 21.8% | viability, T/C [5]: 21.6% | viability, T/C [6]: 17.8% | viability, T/C [7]: 87.6% | viability, T/C [8]: 72.7% | viability, T/C [9]: 39.3% | viability, T/C [10]: 26.5% | viability, T/C [11]: 17% | viability, T/C [12]: 15.7% | viability, T/C [13]: 92.9% | viability, T/C [14]: 79.8% | viability, T/C [15]: 40% | viability, T/C [16]: 26.5% | viability, T/C [17]: 18.8% | viability, T/C [18]: 13.8% | viability, T/C [19]: 75.8% | viability, T/C [20]: 73.9% | viability, T/C [21]: 50.3% | viability, T/C [22]: 26.4% | viability, T/C [23]: 17.5% | viability, T/C [24]: 15.8% | viability, T/C [25]: 74.9% | viability, T/C [26]: 67.6% | viability, T/C [27]: 44% | viability, T/C [28]: 20% | viability, T/C [29]: 23.3% | viability, T/C [30]: 16.6% | viability, T/C [31]: 67.9% | viability, T/C [32]: 51.5% | viability, T/C [33]: 47.8% | viability, T/C [34]: 25.1% | viability, T/C [35]: 21.3% | viability, T/C [36]: 20.2%
